# Earlier results as cited in US5607937A, “Piperazides of substituted phenylalanine derivatives as thrombin inhibitors” (priority 1993, dated 1997).
# Assays:
# thrombin = thrombin (Homo sapiens, UniProt P00734); conditions: literature; cited from earlier work
# trypsin = target: T1, trypsin (Bos taurus, UniProt P00760); conditions: literature; cited from earlier work
# T1 sequence (P00760 24-246): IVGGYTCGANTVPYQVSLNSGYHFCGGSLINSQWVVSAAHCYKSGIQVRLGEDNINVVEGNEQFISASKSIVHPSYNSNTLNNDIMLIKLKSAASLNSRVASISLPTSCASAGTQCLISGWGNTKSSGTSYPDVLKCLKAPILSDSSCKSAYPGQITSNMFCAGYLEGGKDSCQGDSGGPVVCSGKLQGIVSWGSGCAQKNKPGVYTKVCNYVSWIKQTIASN
compound,measurement,setting,value
CC(C)(C)OC(=O)NC(Cc1ccccc1)C(=O)N1CCCC1C(=O)NC(CCCNC(=N)N)B1OC2CC3CC(C3(C)C)C2(C)O1 [Boc-D-Phe-Pro-Boro-Arg-C10 H16],thrombin inhibition in words,thrombin,inhibited in a time-dependent reaction
same,trypsin-inhibiting activity in words,trypsin,inhibited in a time-dependent reaction
